Experimental data taken from patent US20020051978A1, “Methods and compositions for the identification, assessment, prevention and therapy of human cancers” (priority 2000, published 2002).
Several values for one entry are separate records, joined by “and”; a condition that tells them apart may be missing. Equal values may be shown once. Read-outs that look alike come from different tables or passages of the source.

Assays:
tumor = details: animal models; cited from earlier work
[1] = test system: 60 cancer cell lines (NCI 60 cancer cell line series); details: cited from earlier work
[2] = test system: 60 cancer cell lines (NCI 60 cancer cell line series); assay: NCI-DTP in vitro cancer screen, sulforhodamine B (SRB) growth inhibition, 48 hour exposure; type: cell-based, human
How it was run: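 Sixty NCI-DTP cancer lines plated at line-specific densities, dosed on day 1 in duplicate with 5 concentrations at ten-fold intervals. After 48 h exposure, cell mass read by SRB staining; GI50 (50% growth inhibition) taken from dose-response curves and expressed as -log GI50.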

CC(=O)O[C@@]12CO[C@@H]1C[C@H](O)[C@@]1(C)C(=O)[C@H](O)C3=C(C)[C@@H](OC(=O)[C@H](O)[C@@H](NC(=O)OC(C)(C)C)c4ccccc4)C[C@@](O)([C@@H](OC(=O)c4ccccc4)[C@H]21)C3(C)C [Taxotere, docetaxel]
anti-tumor activity (tumor): good anti-tumor activity

Bleomycin
-Log (GI50) ([1]; Breast BT-549 (CL5013)): 5.0 and 5.1 | -Log (GI50) ([1]; Breast MCF7(I) (CL5001)): 5.7 and 5.5 | -Log (GI50) ([1]; Breast MCF7/ADRr (CL5002)): 6.1 and 6.0 | -Log (GI50) ([1]; Breast MDA-MB-435 (CL5011)): 4.7 and 4.6 | -Log (GI50) ([1]; Breast MDA-N CL5012): 4.8 and 4.6 | -Log (GI50) ([1]; Breast T-47D (CL5014)): 5.3 and 5.2 | -Log (GI50) ([1]; CNS SF-295 CL12015): 7.0 and 7.2 | -Log (GI50) ([1]; CNS SF-539 CL12016): 7.7 | -Log (GI50) ([1]; CNS SNB-19 (CL12002)): 5.4 and 5.5 | -Log (GI50) ([1]; Colon COLO-250 CL4010): 5.2 and 5.3 | -Log (GI50) ([1]; Colon HCC-2998 (CL4002)): 5.0 and 4.7 | -Log (GI50) ([1]; Colon HCT-116 (CL4003)): 6.4 and 6.2 | -Log (GI50) ([1]; Colon HT29(I) CL4001): 4.9 and 4.8 | -Log (GI50) ([1]; Colon KM12 (CL4017)): 4.9 and 4.8 | -Log (GI50) ([1]; Colon SW-620 (CL4009)): 5.1 and 5.0 | -Log (GI50) ([1]; Leukemia HL-60(I) (CL7008)): 5.2 and 5.3 | -Log (GI50) ([1]; Leukemia MOLT-4 (CL7006)): 5.9 and 6.2 | -Log (GI50) ([1]; Leukemia RPMI-8226(I) (CL7010)): 4.8 and 4.9 | -Log (GI50) ([1]; Melanoma LOX IMVI CL10001): 6.8 | -Log (GI50) ([1]; Melanoma M14 (CL10014)): 5.8 and 5.5 | -Log (GI50) ([1]; NSCLC NCI-H23(I) CL1001): 6.2 and 6.3 | -Log (GI50) ([1]; NSCLC NCI-H332M CL1017): 4.8 and 4.5 | -Log (GI50) ([1]; Ovarian OVCAR-3 CL6001): 5.3 | -Log (GI50) ([1]; Ovarian OVCAR-8 CL6005): 5.5 and 5.8 | -Log (GI50) ([1]; Ovarian SK-OV-3 CL6011): 5.2 and 5.4 | -Log (GI50) ([1]; Prostate DU-145 CL11003): 5.4 and 5.5 | -Log (GI50) ([1]; Prostate PC-3(I) CL11001): 5.1 and 5.3 | -Log (GI50) ([1]; Renal ACHN CL9023): 8.1 and 7.9 | -Log (GI50) ([1]; Renal RXF-393 CL9016): 6.7 and 6.6 | -Log (GI50) ([1]; Renal SN12C CL9008): 6.0 and 5.9 | -Log (GI50) ([1]; Renal TK10 CL9024): 5.0 and 4.7 | classification of cell line as Low(1), Medium(2) or High(3) sensitivity to compound ([2]; Breast MCF7(I) (CL5001)): 2 | classification of cell line as Low(1), Medium(2) or High(3) sensitivity to compound ([2]; Breast MCF7/ADRr (CL5002)): 2 | classification of cell line as Low(1), Medium(2) or High(3) sensitivity to compound ([2]; Breast MDA-MB-231 CL5005): 1 | classification of cell line as Low(1), Medium(2) or High(3) sensitivity to compound ([2]; Breast MDA-MB-435 (CL5011)): 1 | classification of cell line as Low(1), Medium(2) or High(3) sensitivity to compound ([2]; Breast MDA-N CL5012): 1 | classification of cell line as Low(1), Medium(2) or High(3) sensitivity to compound ([2]; Breast T-47D (CL5014)): 2 | classification of cell line as Low(1), Medium(2) or High(3) sensitivity to compound ([2]; CNS SF-268 CL12014): 2 | classification of cell line as Low(1), Medium(2) or High(3) sensitivity to compound ([2]; CNS SF-295 CL12015): 3 | classification of cell line as Low(1), Medium(2) or High(3) sensitivity to compound ([2]; CNS SF-539 CL12016): 3 | classification of cell line as Low(1), Medium(2) or High(3) sensitivity to compound ([2]; CNS SNB-19 (CL12002)): 2 | classification of cell line as Low(1), Medium(2) or High(3) sensitivity to compound ([2]; CNS SNB-75(I) CL12005): 2 | classification of cell line as Low(1), Medium(2) or High(3) sensitivity to compound ([2]; CNS U251(I) CL12009): 2 | classification of cell line as Low(1), Medium(2) or High(3) sensitivity to compound ([2]; Colon COLO-250 CL4010): 2 | classification of cell line as Low(1), Medium(2) or High(3) sensitivity to compound ([2]; Colon HCT-15 CL4015): 2 | classification of cell line as Low(1), Medium(2) or High(3) sensitivity to compound ([2]; Colon HCT-116 (CL4003)): 2 | classification of cell line as Low(1), Medium(2) or High(3) sensitivity to compound ([2]; Colon HT29(I) CL4001): 1 | classification of cell line as Low(1), Medium(2) or High(3) sensitivity to compound ([2]; Colon KM12 (CL4017)): 1 | classification of cell line as Low(1), Medium(2) or High(3) sensitivity to compound ([2]; Colon SW-620 (CL4009)): 2 | classification of cell line as Low(1), Medium(2) or High(3) sensitivity to compound ([2]; Leukemia CCRF-CEM(I) (CL7003)): 2 | classification of cell line as Low(1), Medium(2) or High(3) sensitivity to compound ([2]; Leukemia HL-60(I) (CL7008)): 2 | classification of cell line as Low(1), Medium(2) or High(3) sensitivity to compound ([2]; Leukemia K562(I) CL7005): 2 | classification of cell line as Low(1), Medium(2) or High(3) sensitivity to compound ([2]; Leukemia MOLT-4 (CL7006)): 2 | classification of cell line as Low(1), Medium(2) or High(3) sensitivity to compound ([2]; Leukemia SR CL7019): 3 | classification of cell line as Low(1), Medium(2) or High(3) sensitivity to compound ([2]; Melanoma LOX IMVI CL10001): 3 | classification of cell line as Low(1), Medium(2) or High(3) sensitivity to compound ([2]; Melanoma M14 (CL10014)): 2 | classification of cell line as Low(1), Medium(2) or High(3) sensitivity to compound ([2]; Melanoma MALME-3M CL10002): 2 | sensitivity class NSCLC NCI-H23(I) CL1001 ([2]; cell line NSCLC NCI-H23(I), CL1001): 2 | sensitivity class NSCLC NCI-H332M CL1017 ([2]; cell line NSCLC NCI-H332M, CL1017): 1 | sensitivity class NSCLC NCI-H522 CL1003 ([2]; cell line NSCLC NCI-H522, CL1003): 2 | sensitivity class Ovarian IGROV1 CL6010 ([2]; cell line Ovarian IGROV1, CL6010): 2 | sensitivity class Ovarian OVCAR-3 CL6001 ([2]; cell line Ovarian OVCAR-3, CL6001): 2 | sensitivity class Ovarian OVCAR-4 CL6002 ([2]; cell line Ovarian OVCAR-4, CL6002): 2 | sensitivity class Ovarian OVCAR-5 CL6003 ([2]; cell line Ovarian OVCAR-5, CL6003): 2 | sensitivity class Ovarian OVCAR-8 CL6005 ([2]; cell line Ovarian OVCAR-8, CL6005): 2 | sensitivity class Ovarian SK-OV-3 CL6011 ([2]; cell line Ovarian SK-OV-3, CL6011): 2 | sensitivity class Prostate DU-145 CL11003 ([2]; cell line Prostate DU-145, CL11003): 2 | sensitivity class Prostate PC-3(I) CL11001 ([2]; cell line Prostate PC-3(I), CL11001): 2 | sensitivity class Renal 786-O CL9018 ([2]; cell line Renal 786-O, CL9018): 2 | sensitivity class Renal A498 CL9013 ([2]; cell line Renal A498, CL9013): 2 | sensitivity class Renal ACHN CL9023 ([2]; cell line Renal ACHN, CL9023): 3 | sensitivity class Renal SN12C CL9008 ([2]; cell line Renal SN12C, CL9008): 2 | sensitivity class Renal TK10 CL9024 ([2]; cell line Renal TK10, CL9024): 1 | 1 # of Low ([2]; number of the 60 cell lines classified Low (1) sensitivity): 12
